Tests used:
Experiment in all cases: relative viability (nuclei count vs DMSO), 5 days (fraction); higher = more cells survive
Motesanib + Olaparib = compound: CC1(C)CNc2cc(NC(=O)c3cccnc3NCc3ccncc3)ccc21 [Motesanib] + O=C(c1cc(Cc2n[nH]c(=O)c3ccccc23)ccc1F)N1CCN(C(=O)C2CC2)CC1 [Olaparib] (partner 8 µM)
Outline: (§1)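 Five library-drug doses in √10 steps were combined with a fixed anchor-drug dose, or a single drug was given alone, by pin tool to lung cancer cell lines in 1536-well plates the day after seeding. Nuclei were stained and counted after 5 days. Relative viability is the nuclei count in treated wells over that in vehicle wells, taken as the median of duplicate plates.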

[1] = compound: C[C@@]1(C(=O)Nc2ccc(F)nc2)CCCN1c1nc(Nc2cc(C3CC3)n[nH]2)c2cccn2n1 + C[C@@H](Oc1cc(-c2cnn(C3CCNCC3)c2)cnc1N)c1c(Cl)ccc(F)c1Cl [Crizotinib] (partner 1 µM)
Outline: as §1

Motesanib + Luminespib = compound: CC1(C)CNc2cc(NC(=O)c3cccnc3NCc3ccncc3)ccc21 [Motesanib] + CCNC(=O)c1noc(-c2cc(C(C)C)c(O)cc2O)c1-c1ccc(CN2CCOCC2)cc1 [Luminespib] (partner 0.01 µM)
Outline: as §1

Motesanib + Bortezomib = compound: CC1(C)CNc2cc(NC(=O)c3cccnc3NCc3ccncc3)ccc21 [Motesanib] + CC(C)C[C@H](NC(=O)[C@H](Cc1ccccc1)NC(=O)c1cnccn1)B(O)O [Bortezomib] (partner 0.002 µM)
Outline: as §1

Cell Line: UMC-11
- relative viability (Motesanib + Olaparib; first compound 0.01 µM): 0.395
- relative viability (Motesanib + Olaparib; first compound 0.03162 µM): 0.356
- relative viability (Motesanib + Olaparib; first compound 0.1 µM): 0.367
- relative viability (Motesanib + Olaparib; first compound 0.3162 µM): 0.378
- relative viability (Motesanib + Olaparib; first compound 1 µM): 0.34
- relative viability ([1]; first compound 0.04 µM): 0.615
- relative viability ([1]; first compound 0.1265 µM): 0.628
- relative viability ([1]; first compound 0.4 µM): 0.534
- relative viability ([1]; first compound 1.265 µM): 0.328
- relative viability (Motesanib + Luminespib; first compound 0.01 µM): 0.987
- relative viability (Motesanib + Luminespib; first compound 0.03162 µM): 1.07
- relative viability (Motesanib + Luminespib; first compound 0.1 µM): 0.927
- relative viability (Motesanib + Luminespib; first compound 0.3162 µM): 1.12
- relative viability (Motesanib + Luminespib; first compound 1 µM): 1.17
- relative viability (Motesanib + Bortezomib; first compound 0.01 µM): 0.648
- relative viability (Motesanib + Bortezomib; first compound 0.03162 µM): 0.767
- relative viability (Motesanib + Bortezomib; first compound 0.1 µM): 0.64
- relative viability (Motesanib + Bortezomib; first compound 0.3162 µM): 0.683
- relative viability (Motesanib + Bortezomib; first compound 1 µM): 0.951

Reference: the supplement of paper PMC10307832
